Experimental data reported in ChEMBL document CHEMBL5131475, “Metallo-β-lactamases inhibitor fisetin attenuates meropenem resistance in NDM-1-producing Escherichia coli” (Eur J Med Chem, 2022).
In brackets after ≈: the same amount, converted by molar mass. Activity calls are given as the source filed them. No cut-off for these calls is given here.

Key:
[1] = test system: Bacteria; experiment: Binding affinity to NDM-1 M248A mutant (unknown origin) assessed as binding free energy by fluorescence quenching method
[2] = test system: Escherichia coli; experiment: Antibacterial activity against NDM-1 positive Escherichia coli ZC-YN3 isolates assessed as spectinomycin MIC incubated for 18 to 24 hrs by CLSI based broth microdilution method; assay type: functional; conditions: time 18-24 hrs
[3] = Inhibition of metallo-beta-lactamase NDM-1 (unknown origin) using nitrocefin as substrate preincubated for 15 min followed by substrate addition and measured after 15 min by microplate reader assay; set-up: species or system Bacteria
[4] = test system: Escherichia coli; experiment: Antibacterial activity against pET28a-NDM-1 positive Escherichia coli BL21(DE3) isolates assessed as florfenicol MIC incubated for 18 to 24 hrs by CLSI based broth microdilution method; assay type: functional; conditions: time 18-24 hrs
[5] = test system: Escherichia coli; experiment: Synergistic antibacterial activity against NDM-1 positive Escherichia coli ZC-YN3 isolates assessed as fractional Inhibitory concentration index incubated for 18 to 24 hrs in presence of rifampicin by CLSI based broth microdilution method; assay type: functional; conditions: time 18-24 hrs
[6] = test system: Bacteria
Description: Binding affinity to NDM-1 V73A mutant (unknown origin) assessed as binding constant by fluorescence quenching method

[7] = test system: Escherichia coli; experiment: Antibacterial activity against NDM-1 positive Escherichia coli ZC-YN3 isolates assessed as florfenicol MIC incubated for 18 to 24 hrs by CLSI based broth microdilution method; assay type: functional; conditions: time 18-24 hrs
[8] = test system: Mus musculus; experiment: Antibacterial activity in BALB/c mouse infected with NDM-1 positive Escherichia coli ZJ487 assessed as increase in survival rate at 10 mg/kg, sc administered every 12 hrs and measured after 96 hrs post infection; assay type: functional
[9] = test system: Escherichia coli; experiment: Antibacterial activity against pET28a-NDM-1 positive Escherichia coli BL21(DE3) isolates assessed as lincomycin MIC incubated for 18 to 24 hrs by CLSI based broth microdilution method; assay type: functional; conditions: time 18-24 hrs
[10] = test system: Escherichia coli; experiment: Synergistic antibacterial activity against NDM-1 positive Escherichia coli ZC-YN3 isolates assessed as fractional Inhibitory concentration index incubated for 18 to 24 hrs in presence of spectinomycin by CLSI based broth microdilution method; assay type: functional; conditions: time 18-24 hrs
[11] = test system: Escherichia coli; experiment: Synergistic antibacterial activity against pET28a NDM-1 positive Escherichia coli BL21(DE3) isolates assessed as fractional Inhibitory concentration index incubated for 18 to 24 hrs in presence of rifampicin by CLSI based broth microdilution method; assay type: functional; conditions: time 18-24 hrs
[12] = test system: Escherichia coli; experiment: Synergistic antibacterial activity against pET28a NDM-1 positive Escherichia coli BL21(DE3) isolates assessed as fractional Inhibitory concentration index incubated for 18 to 24 hrs in presence of ampicillin by CLSI based broth microdilution method; assay type: functional; conditions: time 18-24 hrs
[13] = test system: Escherichia coli; experiment: Synergistic antibacterial activity against NDM-1 positive Escherichia coli ZC-YN3 isolates assessed as fractional Inhibitory concentration index incubated for 18 to 24 hrs in presence of meropenem by CLSI based broth microdilution method; assay type: functional; conditions: time 18-24 hrs
[14] = test system: Escherichia coli; experiment: Antibacterial activity against NDM-1 positive Escherichia coli ZC-YN3 isolates assessed as kanamycin MIC incubated for 18 to 24 hrs by CLSI based broth microdilution method; assay type: functional; conditions: time 18-24 hrs
[15] = test system: Escherichia coli; experiment: Antibacterial activity against pET28a-NDM-1 positive Escherichia coli BL21(DE3) isolates assessed as rifampicin MIC incubated for 18 to 24 hrs by CLSI based broth microdilution method; assay type: functional; conditions: time 18-24 hrs
[16] = test system: Escherichia coli; experiment: Synergistic antibacterial activity against NDM-1 positive Escherichia coli ZC-YN3 isolates assessed as fractional Inhibitory concentration index incubated for 18 to 24 hrs in presence of imipenem by CLSI based broth microdilution method; assay type: functional; conditions: time 18-24 hrs
[17] = test system: Escherichia coli; experiment: Bactericidal activity against pET28a-NDM-1 producing Escherichia coli BL21(DE3) at 32 ug/ml measured within 3 hrs in presence of meropenem by time kill curve assay; assay type: functional, organism-based; conditions: dose 32.0 µg/ml
[18] = test system: Escherichia coli; experiment: Synergistic antibacterial activity against NDM-1 positive Escherichia coli ZC-YN3 isolates assessed as fractional Inhibitory concentration index incubated for 18 to 24 hrs in presence of cefotaxime by CLSI based broth microdilution method; assay type: functional; conditions: time 18-24 hrs
[19] = test system: Escherichia coli; experiment: Antibacterial activity against NDM-1 negative Escherichia coli BL21(DE3) (pET28a) isolates assessed as meropenem MIC incubated for 18 to 24 hrs by CLSI based broth microdilution method; assay type: functional; conditions: time 18-24 hrs
[20] = test system: Escherichia coli; experiment: Synergistic antibacterial activity against NDM-1 positive Escherichia coli ZC-YN3 isolates assessed as fractional Inhibitory concentration index incubated for 18 to 24 hrs in presence of streptomycin by CLSI based broth microdilution method; assay type: functional; conditions: time 18-24 hrs
[21] = test system: Escherichia coli; experiment: Antibacterial activity against NDM-1 positive Escherichia coli ZC-YN3 isolates assessed as ampicillin MIC incubated for 18 to 24 hrs by CLSI based broth microdilution method; assay type: functional; conditions: time 18-24 hrs
[22] = Inhibition of class A […]beta-lactamase KPC-2 (unknown origin) using nitrocefin as substrate preincubated for 15 min followed by substrate addition and measured after 15 min by microplate reader assay; set-up: species or system Bacteria
[23] = test system: Escherichia coli; experiment: Antibacterial activity against NDM-1 positive Escherichia coli ZC-YN3 isolates assessed as rifampicin MIC incubated for 18 to 24 hrs by CLSI based broth microdilution method; assay type: functional; conditions: time 18-24 hrs
[24] = test system: Escherichia coli; experiment: Synergistic antibacterial activity against pET28a NDM-1 positive Escherichia coli BL21(DE3) isolates assessed as fractional Inhibitory concentration index incubated for 18 to 24 hrs in presence of tetracycline by CLSI based broth microdilution method; assay type: functional; conditions: time 18-24 hrs
[25] = test system: Escherichia coli; experiment: Antibacterial activity against pET28a-NDM-1 positive Escherichia coli BL21(DE3) isolates assessed as doxycycline MIC incubated for 18 to 24 hrs by CLSI based broth microdilution method; assay type: functional; conditions: time 18-24 hrs
[26] = test system: Escherichia coli; experiment: Antibacterial activity against NDM-1 positive Escherichia coli ZC-YN3 isolates assessed as lincomycin MIC incubated for 18 to 24 hrs by CLSI based broth microdilution method; assay type: functional; conditions: time 18-24 hrs
[27] = test system: Bacteria; remark: listed apart in the source
Description: Binding affinity to NDM-1 (unknown origin) assessed as binding constant by fluorescence quenching method

[28] = test system: Escherichia coli; experiment: Antibacterial activity against pET28a-NDM-1 positive Escherichia coli BL21(DE3) isolates assessed as ciprofloxacin MIC incubated for 18 to 24 hrs by CLSI based broth microdilution method; assay type: functional; conditions: time 18-24 hrs
[29] = test system: Escherichia coli; experiment: Synergistic antibacterial activity against NDM-1 positive Escherichia coli ZC-YN3 isolates assessed as fractional Inhibitory concentration index incubated for 18 to 24 hrs in presence of vancomycin by CLSI based broth microdilution method; assay type: functional; conditions: time 18-24 hrs
[30] = test system: Escherichia coli; experiment: Antibacterial activity against NDM-1 positive Escherichia coli ZC-YN3 isolates assessed as tetracycline MIC incubated for 18 to 24 hrs by CLSI based broth microdilution method; assay type: functional; conditions: time 18-24 hrs
[31] = test system: Escherichia coli; experiment: Synergistic antibacterial activity against pET28a NDM-1 positive Escherichia coli BL21(DE3) isolates assessed as fractional Inhibitory concentration index incubated for 18 to 24 hrs in presence of kanamycin by CLSI based broth microdilution method; assay type: functional; conditions: time 18-24 hrs
[32] = test system: Escherichia coli; experiment: Synergistic antibacterial activity against NDM-1 positive Escherichia coli ZC-YN3 isolates assessed as fractional Inhibitory concentration index incubated for 18 to 24 hrs in presence of lincomycin by CLSI based broth microdilution method; assay type: functional; conditions: time 18-24 hrs
[33] = Inhibition of metallo-beta-lactamase IMP-1 (unknown origin) using nitrocefin as substrate preincubated for 15 min followed by substrate addition and measured after 15 min by microplate reader assay; set-up: species or system Bacteria
[34] = test system: Escherichia coli; experiment: Antibacterial activity against NDM-1 positive Escherichia coli ZC-YN3 isolates assessed as cefotaxime MIC incubated for 18 to 24 hrs by CLSI based broth microdilution method; assay type: functional; conditions: time 18-24 hrs
[35] = test system: Bacteria; experiment: Inhibition of NDM-1 M248A mutant activity (unknown origin) in presence of zinc ion

O=c1c(O)c(-c2ccc(O)c(O)c2)oc2cc(O)ccc12 [FISETIN]
Activity [1]: -16.2 kcal/mol
MIC [2]: 853 µg/mL
IC50 [3]: 9.66 µg/mL (≈ 33.7 µM)
MIC [4]: 683 µg/mL
fractional inhibitory concentration index (FICI) [5]: 0.96
Ka [6]: 11.1 10^5L/mol
MIC [7]: 341 µg/mL
Activity [8]: 20%
MIC [9]: 853 µg/mL
fractional inhibitory concentration index (FICI) [10]: 1.13
fractional inhibitory concentration index (FICI) [11]: 0.96
fractional inhibitory concentration index (FICI) [12]: 0.96
fractional inhibitory concentration index (FICI) [13]: 0.31
MIC [14]: 853 µg/mL
MIC [15]: 853 µg/mL
fractional inhibitory concentration index (FICI) [16]: 0.38
Activity [17]: Active
fractional inhibitory concentration index (FICI) [18]: 1.13
MIC [19]: 0.01 µg/mL
fractional inhibitory concentration index (FICI) [20]: 1.13
MIC [21]: 853 µg/mL
IC50 [22]: 2.63 µg/mL (≈ 9.19 µM)
MIC [23]: 10.7 µg/mL
fractional inhibitory concentration index (FICI) [24]: 0.96
MIC [25]: 107 µg/mL
MIC [26]: 1020 µg/mL
Ka [27]: 12.2 10^5L/mol
MIC [28]: 341 µg/mL
fractional inhibitory concentration index (FICI) [29]: 0.96
MIC [30]: 128 µg/mL
fractional inhibitory concentration index (FICI) [31]: 1.13
fractional inhibitory concentration index (FICI) [32]: 1.13
IC50 [33]: 56.13 µg/mL (≈ 196 µM)
MIC [34]: 512 µg/mL
inhibition [35]: Active
